# Measurements published in paper PMC3326534 (Biochemistry, 2007).
# Like-named read-outs stand apart in the source and are kept apart here.
# What was measured:
# Format in all cases: binding
# PrnB [1] = molecular target: PrnB (Pseudomonas fluorescens, UniProt P95481, C21S/C60S/C175S); assay: crystal structure
# PrnB [2] = molecular target: T1, PrnB (Pseudomonas fluorescens, UniProt P95481, C175S/C21S/C60S); assay: spectrophotometric ligand titration
# PrnB [3] = molecular target: T1, PrnB; assay: spectrophotometric ligand titration; remark: listed apart in the source
# PrnB [4] = molecular target: T1, PrnB; assay: spectrophotometric ligand titration; remark: listed apart in the source
# T1 sequence (P95481 whole entry C175S/C21S/C60S): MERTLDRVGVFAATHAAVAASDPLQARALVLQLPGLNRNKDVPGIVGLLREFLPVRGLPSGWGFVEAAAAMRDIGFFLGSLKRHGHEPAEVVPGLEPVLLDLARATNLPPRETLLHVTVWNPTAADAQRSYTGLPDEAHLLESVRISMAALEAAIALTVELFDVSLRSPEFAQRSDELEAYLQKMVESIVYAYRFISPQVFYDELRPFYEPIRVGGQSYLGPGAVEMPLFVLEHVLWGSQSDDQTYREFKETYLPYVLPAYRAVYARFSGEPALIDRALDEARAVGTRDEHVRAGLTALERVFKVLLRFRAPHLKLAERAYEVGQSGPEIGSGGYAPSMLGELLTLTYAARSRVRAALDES
# Chain of PrnB (Pseudomonas fluorescens, UniProt P95481, C21S/C60S/C175S) (P95481 whole entry C21S/C60S/C175S): as the sequence (P95481 whole entry C175S/C21S/C60S) above
compound,measurement,setting,value
NC(Cc1c[nH]c2c(Cl)cccc12)C(=O)O (racemic) [7-Cl-D-tryptophan],crystal structure (2.0 Å),PrnB [1],"In the 7-Cl-D-tryptophan complex, one of the oxygen atoms of the carboxyl group is bound to the iron"
N[C@@H](Cc1c[nH]c2c(Cl)cccc12)C(=O)O [7-Cl-L-tryptophan],Kd,PrnB [2],4.9 µM
N[C@H](Cc1c[nH]c2ccccc12)C(=O)O [D-tryptophan],Kd,PrnB [3],39 µM
N[C@@H](Cc1c[nH]c2ccccc12)C(=O)O [L-tryptophan],Kd,PrnB [4],60 µM
